Drawing on US20260297085A1, “1 H-PYRROLO[2,3-B]PYRIDIN-4-YL]-2-OXOPYRROLIDINE-3-CARBONITRILE DERIVATIVES AS TYROSINE KINASE 2 (TYK2) INHIBITORS FOR THE TREATMENT OF INFLAMMATORY DISEASES” (BIOGEN MA INC., priority 2023, published 2026), this text covers IC50 for twelve compounds.

Test [1] has as its target T1, human JAK3 kinase domain (JH1) (Homo sapiens, UniProt P52333).
T1 construct: recombinantly generated catalytic kinase (also known as JH1) domain of human JAK1, JAK2, JAK3 and TYK2
Kind of test: JH1 biochemical assay for JAK3 (ADP-Glo kinase assay, recombinant JH1 catalytic domain, JAK3-974 peptide, 4 μM ATP). The note with it: JH1 kinase domain, ADP-Glo. An outline of the steps: (§1)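 Enzyme levels: JAK1 4 nM, JAK2 0.2 nM, JAK3 0.3 nM, TYK2 2 nM. Peptide substrate at 50 μM. Reactions ran 100 minutes; ADP formed was converted to luciferase luminescence after ATP depletion. Compounds tested from 10 μM or 1 μM top, 11-point 3-fold dilutions; IC50 from 4-parameter logistic fit of normalized percent activity.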
For orientation: In ADP-Glo the light output rises with the ADP produced.

Test [2] has as its target JAK1 kinase activity on STAT3 in TF1 cells (Homo sapiens, UniProt P23458). Kind of test: pSTAT3 cell assay (MSD; TF1 cells, 30 ng/mL IL-6 stimulation). The class given is cell-based. Conditions: 30 ng/mL IL-6, 15 minutes. An outline of the steps:
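IC50 values reflect 4-parameter logistic fits of normalized pSTAT3 signal, measured by MSD in lysed TF1 cells. Cells were serum-starved and treated with compound for 1 h (top concentration 10 μM) before a 15 min IL-6 challenge.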

The target of test [3] is T2, human TYK2 kinase domain (JH1) (Homo sapiens, UniProt P29597).
T2 construct: recombinantly generated catalytic kinase (also known as JH1) domain of human JAK1, JAK2, JAK3 and TYK2
T2 sequence (P29597 897-1176 limits assumed): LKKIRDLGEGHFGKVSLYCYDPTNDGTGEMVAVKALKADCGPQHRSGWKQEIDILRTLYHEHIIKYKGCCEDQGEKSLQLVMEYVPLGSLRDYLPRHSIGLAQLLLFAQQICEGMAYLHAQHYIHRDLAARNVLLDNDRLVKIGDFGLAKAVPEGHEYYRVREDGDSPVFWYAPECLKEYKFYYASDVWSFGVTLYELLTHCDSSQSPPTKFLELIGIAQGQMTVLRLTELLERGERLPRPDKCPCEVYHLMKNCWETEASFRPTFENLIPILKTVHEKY
Kind of test: JH1 biochemical assay for TYK2 (ADP-Glo kinase assay, recombinant JH1 catalytic domain, JAK3-974 peptide, 10 μM ATP). Conditions: JH1 kinase domain, ADP-Glo. The essentials: as §1

Test [4] has as its target JAK2 kinase activity on STAT5 in TF1 cells (Homo sapiens, UniProt O60674). In words: pSTAT5 cell assay (MSD; TF1 cells, 30 ng/mL IL-3 stimulation). The note with it: 30 ng/mL IL-3, 15 minutes. The class given is cell-based. An outline of the steps:
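IC50 from a 4-parameter logistic fit of normalized pSTAT5 signal, measured by MSD in lysates of TF1 cells. Cells were serum-starved, exposed to compound for 1 h (top concentration 10 μM, four-fold, 10 points), then given IL-3 at 30 ng/mL for 15 min.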

The target in test [5] is T3, human JAK2 kinase domain (JH1) (Homo sapiens, UniProt O60674).
T3 construct: recombinantly generated catalytic kinase (also known as JH1) domain of human JAK1, JAK2, JAK3 and TYK2
T3 sequence (O60674 849-1124 limits assumed): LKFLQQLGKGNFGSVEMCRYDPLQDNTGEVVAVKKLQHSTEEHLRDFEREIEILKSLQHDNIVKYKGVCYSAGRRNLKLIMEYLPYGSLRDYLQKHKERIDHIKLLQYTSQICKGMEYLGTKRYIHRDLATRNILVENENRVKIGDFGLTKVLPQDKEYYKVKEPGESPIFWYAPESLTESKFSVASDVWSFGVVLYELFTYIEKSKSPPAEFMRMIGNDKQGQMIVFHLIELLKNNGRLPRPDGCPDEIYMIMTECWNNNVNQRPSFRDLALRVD
Kind of test: JH1 biochemical assay for JAK2 (ADP-Glo kinase assay, recombinant JH1 catalytic domain, JAK3-974 peptide, 15 μM ATP). The note with it: JH1 kinase domain, ADP-Glo. The essentials:
as §1

Test [6] concerns the target Tyk2 kinase activity on STAT4 in NK92 cells (Homo sapiens, UniProt P29597). Kind of test: pSTAT4 cell assay (MSD; NK92 cells, 30 ng/mL IL2 stimulation). In kind it is cell-based. The note with it: 30 ng/mL IL2, 15 minutes. An outline of the steps: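 Read-out: phospho-STAT in NK92 lysates, MSD format, anti-STAT4 antibodies. Cells were serum-starved, given compound for 1 hr (10 μM top, four-fold, 10 points) and IL2-stimulated (30 ng/mL, 15 min). Normalized percent activity vs log concentration, 4-parameter logistic fit gave IC50.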

In test [7] the target is T4, human JAK1 kinase domain (JH1) (Homo sapiens, UniProt P23458).
T4 construct: recombinantly generated catalytic kinase (also known as JH1) domain of human JAK1, JAK2, JAK3 and TYK2
T4 sequence (P23458 875-1153 limits assumed): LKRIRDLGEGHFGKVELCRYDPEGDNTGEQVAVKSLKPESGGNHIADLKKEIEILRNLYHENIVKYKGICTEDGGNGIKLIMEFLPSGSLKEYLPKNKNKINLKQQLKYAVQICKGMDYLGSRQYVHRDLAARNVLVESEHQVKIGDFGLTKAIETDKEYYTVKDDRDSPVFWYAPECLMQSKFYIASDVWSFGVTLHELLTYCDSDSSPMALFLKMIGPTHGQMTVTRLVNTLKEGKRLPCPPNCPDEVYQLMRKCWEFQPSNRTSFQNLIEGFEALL
Kind of test: JH1 biochemical assay for JAK1 (ADP-Glo kinase assay, recombinant JH1 catalytic domain, JAK3-342 peptide, 35 μM ATP). Conditions: JH1 kinase domain, ADP-Glo. The essentials: as §1

JAK2 kinase activity on STAT5 in TF1 cells, sequence (O60674 whole entry): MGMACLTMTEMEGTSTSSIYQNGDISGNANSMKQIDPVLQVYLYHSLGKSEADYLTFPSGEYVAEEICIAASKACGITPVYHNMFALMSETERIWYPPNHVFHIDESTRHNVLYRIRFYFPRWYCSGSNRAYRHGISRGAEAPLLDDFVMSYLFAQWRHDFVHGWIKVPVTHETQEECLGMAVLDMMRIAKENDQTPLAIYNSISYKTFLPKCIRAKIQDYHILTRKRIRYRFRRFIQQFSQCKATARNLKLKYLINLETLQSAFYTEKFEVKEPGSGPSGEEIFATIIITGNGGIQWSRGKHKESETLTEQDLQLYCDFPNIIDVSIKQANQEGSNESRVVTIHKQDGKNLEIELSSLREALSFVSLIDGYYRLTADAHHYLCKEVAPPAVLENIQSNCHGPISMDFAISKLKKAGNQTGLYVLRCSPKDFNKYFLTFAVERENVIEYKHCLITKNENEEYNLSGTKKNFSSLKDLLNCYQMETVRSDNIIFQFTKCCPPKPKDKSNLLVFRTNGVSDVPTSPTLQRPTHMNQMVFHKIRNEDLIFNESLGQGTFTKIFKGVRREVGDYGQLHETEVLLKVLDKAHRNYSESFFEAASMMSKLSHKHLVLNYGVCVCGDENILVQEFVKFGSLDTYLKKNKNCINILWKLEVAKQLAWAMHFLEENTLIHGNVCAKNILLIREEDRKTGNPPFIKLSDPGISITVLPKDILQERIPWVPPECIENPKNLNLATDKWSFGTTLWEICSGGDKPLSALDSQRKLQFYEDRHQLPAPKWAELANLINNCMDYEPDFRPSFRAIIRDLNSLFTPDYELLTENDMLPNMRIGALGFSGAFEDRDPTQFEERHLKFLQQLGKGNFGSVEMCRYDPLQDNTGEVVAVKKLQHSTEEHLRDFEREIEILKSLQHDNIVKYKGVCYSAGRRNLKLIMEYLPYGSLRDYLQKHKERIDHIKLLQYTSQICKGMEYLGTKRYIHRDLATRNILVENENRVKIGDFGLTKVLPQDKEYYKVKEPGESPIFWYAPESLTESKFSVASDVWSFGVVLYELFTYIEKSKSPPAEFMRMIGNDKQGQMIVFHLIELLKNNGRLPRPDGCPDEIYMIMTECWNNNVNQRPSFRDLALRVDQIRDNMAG
T1 sequence (P52333 822-1111 limits assumed): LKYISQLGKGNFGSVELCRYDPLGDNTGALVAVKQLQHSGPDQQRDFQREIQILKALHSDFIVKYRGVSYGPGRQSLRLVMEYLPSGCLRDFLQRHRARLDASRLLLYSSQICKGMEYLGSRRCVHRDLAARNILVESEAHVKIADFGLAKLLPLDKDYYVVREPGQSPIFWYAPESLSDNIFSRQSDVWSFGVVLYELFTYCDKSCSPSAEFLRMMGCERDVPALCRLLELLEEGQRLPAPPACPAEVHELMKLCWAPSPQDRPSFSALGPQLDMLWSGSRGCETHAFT
Tyk2 kinase activity on STAT4 in NK92 cells, sequence (P29597 whole entry): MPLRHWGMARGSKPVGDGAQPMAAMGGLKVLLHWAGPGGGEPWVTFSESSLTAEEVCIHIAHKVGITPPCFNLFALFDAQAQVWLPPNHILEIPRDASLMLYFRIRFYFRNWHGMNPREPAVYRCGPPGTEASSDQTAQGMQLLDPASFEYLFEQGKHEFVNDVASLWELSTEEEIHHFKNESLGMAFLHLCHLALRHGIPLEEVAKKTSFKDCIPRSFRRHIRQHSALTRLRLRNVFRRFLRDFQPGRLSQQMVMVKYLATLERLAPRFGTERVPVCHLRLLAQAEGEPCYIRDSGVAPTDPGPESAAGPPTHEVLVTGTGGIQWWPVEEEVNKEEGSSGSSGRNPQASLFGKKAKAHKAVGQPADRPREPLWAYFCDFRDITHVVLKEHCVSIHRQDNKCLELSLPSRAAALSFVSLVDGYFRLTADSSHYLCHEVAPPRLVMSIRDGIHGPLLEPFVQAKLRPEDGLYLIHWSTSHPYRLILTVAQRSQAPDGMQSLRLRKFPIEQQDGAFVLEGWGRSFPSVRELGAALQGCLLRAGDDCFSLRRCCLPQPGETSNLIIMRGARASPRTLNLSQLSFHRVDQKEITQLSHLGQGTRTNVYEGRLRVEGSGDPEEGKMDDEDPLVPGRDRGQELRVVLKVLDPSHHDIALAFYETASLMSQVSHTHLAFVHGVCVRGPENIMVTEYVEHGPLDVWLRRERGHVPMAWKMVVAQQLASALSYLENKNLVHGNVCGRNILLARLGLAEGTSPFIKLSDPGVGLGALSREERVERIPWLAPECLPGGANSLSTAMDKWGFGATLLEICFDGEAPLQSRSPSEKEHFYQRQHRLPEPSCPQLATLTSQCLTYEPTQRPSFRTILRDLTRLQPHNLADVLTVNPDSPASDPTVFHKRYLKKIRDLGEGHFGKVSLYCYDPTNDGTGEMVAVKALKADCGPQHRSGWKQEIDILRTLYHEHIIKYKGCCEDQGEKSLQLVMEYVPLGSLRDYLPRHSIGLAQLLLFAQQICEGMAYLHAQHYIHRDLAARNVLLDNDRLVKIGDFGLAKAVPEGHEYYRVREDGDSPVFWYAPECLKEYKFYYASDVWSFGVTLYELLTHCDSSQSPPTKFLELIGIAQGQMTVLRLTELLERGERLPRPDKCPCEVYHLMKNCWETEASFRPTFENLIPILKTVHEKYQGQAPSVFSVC
JAK1 kinase activity on STAT3 in TF1 cells, sequence (P23458 whole entry): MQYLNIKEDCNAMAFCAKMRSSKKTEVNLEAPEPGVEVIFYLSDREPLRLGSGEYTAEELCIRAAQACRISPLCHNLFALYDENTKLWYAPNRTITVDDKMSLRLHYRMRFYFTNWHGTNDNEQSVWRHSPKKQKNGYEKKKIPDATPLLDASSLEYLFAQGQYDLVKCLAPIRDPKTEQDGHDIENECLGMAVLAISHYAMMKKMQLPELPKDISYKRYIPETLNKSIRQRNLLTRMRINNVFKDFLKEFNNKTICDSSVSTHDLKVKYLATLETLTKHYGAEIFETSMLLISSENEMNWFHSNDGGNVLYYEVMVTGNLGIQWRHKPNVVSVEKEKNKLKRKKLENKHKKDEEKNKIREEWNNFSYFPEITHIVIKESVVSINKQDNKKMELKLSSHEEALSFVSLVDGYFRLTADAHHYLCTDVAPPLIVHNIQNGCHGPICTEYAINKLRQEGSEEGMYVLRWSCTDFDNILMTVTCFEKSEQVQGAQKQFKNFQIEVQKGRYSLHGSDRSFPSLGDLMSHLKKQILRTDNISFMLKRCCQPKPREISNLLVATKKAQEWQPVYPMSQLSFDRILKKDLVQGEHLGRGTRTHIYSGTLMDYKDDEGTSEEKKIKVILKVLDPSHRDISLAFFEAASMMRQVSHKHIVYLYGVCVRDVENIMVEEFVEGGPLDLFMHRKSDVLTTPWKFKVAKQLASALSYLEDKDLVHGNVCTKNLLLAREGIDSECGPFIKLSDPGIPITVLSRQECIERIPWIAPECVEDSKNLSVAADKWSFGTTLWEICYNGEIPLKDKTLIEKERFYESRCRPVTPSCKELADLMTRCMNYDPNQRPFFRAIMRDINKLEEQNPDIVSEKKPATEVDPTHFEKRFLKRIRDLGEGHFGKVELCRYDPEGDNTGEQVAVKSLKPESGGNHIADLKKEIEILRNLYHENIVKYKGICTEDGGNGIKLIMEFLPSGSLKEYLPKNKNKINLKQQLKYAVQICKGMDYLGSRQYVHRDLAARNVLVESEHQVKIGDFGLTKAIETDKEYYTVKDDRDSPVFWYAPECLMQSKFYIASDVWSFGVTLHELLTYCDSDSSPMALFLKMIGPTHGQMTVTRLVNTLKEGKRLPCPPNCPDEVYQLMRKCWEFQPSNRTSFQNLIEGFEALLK

For orientation: IC50 means the concentration that inhibits the measured activity by half. Turning to `C[C@@H]1CN(c2ccnn3cc(-c4cnn(-c5ccccn5)c4)cc23)C(=O)[C@]1(C#N)C1CC1` [Example 158, (3R,4S)-3-cyclopropyl-4-methyl-2-oxo-1-(6-(1-(pyridin-2-yl)-1H-pyrazol-4-yl)pyrrolo[1,2-b]pyridazin-4-yl)pyrrolidine-3-carbonitrile], the half-maximal inhibitory concentration (IC50) was 0.1 to 1 µM in test [1]; 1 to 5 µM in test [2]; < 0.005 µM in test [3]; > 10 µM in test [4]; 0.1 to 1 µM in test [5]; > 0.1 µM in test [6]. For the same compound, the IC50 in test [7] lay in the range of 0.1 to 1 µM.

`C[C@@H]1CN(c2ccnn3cc(-c4cnn(-c5cccnc5)c4)cc23)C(=O)[C@]1(C#N)C1CC1` [Example 159, (3R,4S)-3-cyclopropyl-4-methyl-2-oxo-1-(6-(1-(pyridin-3-yl)-1H-pyrazol-4-yl)pyrrolo[1,2-b]pyridazin-4-yl)pyrrolidine-3-carbonitrile]: the IC50 was 0.1 to 1 µM in test [1]; 1 to 5 µM in test [2]; < 0.005 µM in test [3]; 5 to 10 µM in test [4]; 0.1 to 1 µM in test [5]; 0.05 to 0.1 µM in test [6]. In test [7], the IC50 was in the range of 0.1 to 1 µM.

Regarding `C[C@@H]1CN(c2ccnn3cc(-c4cnn(-c5ccncc5)c4)cc23)C(=O)[C@]1(C#N)C1CC1` [Example 160, (3R,4S)-3-cyclopropyl-4-methyl-2-oxo-1-(6-(1-(pyridin-4-yl)-1H-pyrazol-4-yl)pyrrolo[1,2-b]pyridazin-4-yl)pyrrolidine-3-carbonitrile], the IC50 was 0.1 to 1 µM in test [1]; 1 to 5 µM in test [2]; < 0.005 µM in test [3]; 1 to 5 µM in test [4]; 0.1 to 1 µM in test [5]; 0.05 to 0.1 µM in test [6]. The IC50 in test [7] lay in the range of 0.1 to 1 µM.

Regarding `C[C@@H]1CN(c2ccnn3cc(-c4cnn(C5CC5)c4)cc23)C(=O)[C@]1(C#N)C1CC1` [Example 161, (3R,4S)-3-cyclopropyl-1-(6-(1-cyclopropyl-1H-pyrazol-4-yl)pyrrolo[1,2-b]pyridazin-4-yl)-4-methyl-2-oxopyrrolidine-3-carbonitrile], the IC50 in test [1] was 0.1 to 1 µM; in test [2], 1 to 5 µM; in test [3], < 0.005 µM; in test [4] it was 1 to 5 µM; in test [5] it was 0.1 to 1 µM; in test [6] it was 0.02 to 0.05 µM. Also, in test [7], the IC50 was in the range of 0.1 to 1 µM.

As to `C[C@@H]1CN(c2ccnn3cc(-c4cnn(C5CCOC5)c4)cc23)C(=O)[C@]1(C#N)C1CC1` (stereo partly drawn) [Example 162, (3R,4S)-3-cyclopropyl-4-methyl-2-oxo-1-(6-(1-(tetrahydrofuran-3-yl)-1H-pyrazol-4-yl)pyrrolo[1,2-b]pyridazin-4-yl)pyrrolidine-3-carbonitrile], the IC50 is < 0.1 µM in test [1]; 1 to 5 µM in test [2]; < 0.005 µM in test [3]; 1 to 5 µM in test [4]; < 0.1 µM in test [5]; 0.02 to 0.05 µM in test [6]. In addition, the IC50 in test [7] was < 0.1 µM.

Take `C[C@@H]1CN(c2ccnn3cc(-c4cnn(S(C)(=O)=O)c4)cc23)C(=O)[C@]1(C#N)C1CC1` [Example 163, (3R,4S)-3-cyclopropyl-4-methyl-1-(6-(1-(methylsulfonyl)-1H-pyrazol-4-yl)pyrrolo[1,2-b]pyridazin-4-yl)-2-oxopyrrolidine-3-carbonitrile]: the concentration for half-maximal inhibition (IC50) was 0.1 to 1 µM in test [1]; 1 to 5 µM in test [2]; < 0.005 µM in test [3]; 5 to 10 µM in test [4]; 0.1 to 1 µM in test [5]; > 0.1 µM in test [6]. Also, the IC50 in test [7] was 0.1 to 1 µM.

As for `[2H]C([2H])([2H])n1cc(-c2cc3c(N4C[C@@H](C)[C@@](C#N)(C5CC5)C4=O)ccnn3c2)cn1` [Example 164, (3R,4 S)-3-cyclopropyl-4-methyl-1-(6-(1-(methyl-d3)-1H-pyrazol-4-yl)pyrrolo[1,2-b]pyridazin-4-yl)-2-oxopyrrolidine-3-carbonitrile], the IC50 was < 0.1 µM in test [1]; 1 to 5 µM in test [2]; < 0.005 µM in test [3]; 5 to 10 µM in test [4]; 0.1 to 1 µM in test [5]; 0.02 to 0.05 µM in test [6]. The IC50 in test [7] is < 0.1 µM.

For `Cc1nn(C)cc1-c1cc2c(N3C[C@@H](C)[C@@](C#N)(C4CC4)C3=O)ccnn2c1` [Example 165, (3R,4S)-3-cyclopropyl-1-(6-(1,3-dimethyl-1H-pyrazol-4-yl)pyrrolo[1,2-b]pyridazin-4-yl)-4-methyl-2-oxopyrrolidine-3-carbonitrile], the IC50 in test [1] was 0.1 to 1 µM; in test [2], 1 to 5 µM; in test [3], < 0.005 µM; in test [4] it was 5 to 10 µM; in test [5], 0.1 to 1 µM; in test [6], 0.02 to 0.05 µM. In test [7], the IC50 lay in the range of 0.1 to 1 µM.

Regarding `Cc1c(-c2cc3c(N4C[C@@H](C)[C@@](C#N)(C5CC5)C4=O)ccnn3c2)cnn1C` [Example 166, (3R,4S)-3-cyclopropyl-1-(6-(1,5-dimethyl-1H-pyrazol-4-yl)pyrrolo[1,2-b]pyridazin-4-yl)-4-methyl-2-oxopyrrolidine-3-carbonitrile], the IC50 in test [1] was 0.1 to 1 µM; in test [2] it was > 10 µM; in test [3], 0.005 to 0.02 µM; in test [4] it was > 10 µM; in test [5] it was 0.1 to 1 µM; in test [6], > 0.1 µM. The IC50 in test [7] was in the range of 0.1 to 1 µM.

In the case of `CC(C)n1cc(-c2cc3c(N4C[C@@H](C)[C@@](C#N)(C5CC5)C4=O)ccnn3c2)cn1` [Example 167, (3R,4S)-3-cyclopropyl-1-(6-(1-isopropyl-1H-pyrazol-4-yl)pyrrolo[1,2-b]pyridazin-4-yl)-4-methyl-2-oxopyrrolidine-3-carbonitrile], the IC50 was < 0.1 µM in test [1]; 0.1 to 1 µM in test [2]; < 0.005 µM in test [3]; 1 to 5 µM in test [4]; < 0.1 µM in test [5]; 0.02 to 0.05 µM in test [6]. The IC50 in test [7] is < 0.1 µM.

As for `C[C@@H]1CN(c2ccnn3cc(-c4cnn(CC#N)c4)cc23)C(=O)[C@]1(C#N)C1CC1` [Example 168, (3R,4S)-1-(6-(1-(cyanomethyl)-1H-pyrazol-4-yl)pyrrolo[1,2-b]pyridazin-4-yl)-3-cyclopropyl-4-methyl-2-oxopyrrolidine-3-carbonitrile], the IC50 in test [1] was < 0.1 µM; in test [2], 1 to 5 µM; in test [3], < 0.005 µM; in test [4] it was 1 to 5 µM; in test [5] it was < 0.1 µM; in test [6] it was 0.05 to 0.1 µM. Moreover, the IC50 in test [7] is < 0.1 µM.

As to `C[C@@H]1CN(c2ccnn3cc(-c4cnn(C5CCCCC5)c4)cc23)C(=O)[C@]1(C#N)C1CC1` [Example 169, (3R,4S)-1-(6-(1-cyclohexyl-1H-pyrazol-4-yl)pyrrolo[1,2-b]pyridazin-4-yl)-3-cyclopropyl-4-methyl-2-oxopyrrolidine-3-carbonitrile], the IC50 in test [1] is < 0.1 µM; in test [2], 1 to 5 µM; in test [3] it was < 0.005 µM; in test [4] it was 1 to 5 µM; in test [5], < 0.1 µM; in test [6] it was > 0.1 µM. The IC50 in test [7] is < 0.1 µM.
